Patent publication US12729194B2, “Compounds for the treatment of human immunodeficiency virus” (priority 2019, dated 2026)
pIC50: −log10 of the molar value.

Tests used:
HIV-1 Env complexes = assay: Association of gp120 with detergent-solubilized His6-tagged Env complexes (Ni-NTA precipitation, Western blot)
Protocol: Association of gp120 with Env complexes: The non-covalent association of gp120 with HIV-1 Env complexes was studied using carboxy-terminally His6-tagged Envs from three different sources: 1) VLPs produced from A549-Gag/Env cells; 2) A549 cells expressing HIV-1AD8 and HIV-1CH848 Envs; and 3) HOS cells transiently expressing wild-type HIV-1JR-FL Env and wild-type and mutant HIV-1AD8 Envs. VLP and cell lysates from A549 cells were prepared in 1.5% Triton X-100. Cell lysates from HOS cells were prepared in 1.5% Cymal-5 (Anatrace). The VLP and cell lysates were clarified as described above. DMSO, a compound described herein, sCD4 or the CD4-mimetic compound, BNM-III-170 (Melillo, ACS Med Chem Letters 7, 33-334, 2016), was added to the lysate. Aliquots of the lysates were saved for Western blotting to detect the gp160, gp120 and gp41 glycoproteins in the input sample. The bulk of the lysates was incubated with nickel-nitriloacetic acid (Ni-NTA) beads (Qiagen) for 1.5 hours at 4° C. The beads were pelleted (1000 rpm for 1 minute at room temperature), washed 3 times with wash buffer with 1% Triton X-100, boiled in LDS sample buffer, and analyzed by Western blotting as described above.

[1] = system: HIV-1 with JR-FL S375W Env; type: cell-based; settings: Cf2Th-CD4/CCR5 target cells, 48 hours, luciferase; read-out: 50% inhibitory concentration (IC50), JR-FL S375W
HIV-1AD8 Env on VLPs = assay: Shedding of gp120 from VLP Env; settings: 4° C. and 37° C., 4 days, no detergent
Protocol: Shedding of gp120 from VLP Env: The effect of compounds on the spontaneous shedding of gp120 from VLP Env was evaluated. VLPs with the wild-type HIV-1AD8 Env were prepared from the supernatants of A549-Gag/Env cells, as described above. The VLPs were suspended in PBS, to which was added either DMSO or a compound described herein. An aliquot of the VLP suspension in PBS/DMSO was processed as described below to serve as a Day 0 control. The VLP suspensions were incubated for 4 days at 4° C., room temperature or 37° C. (with gentle rocking). Then the VLPs were pelleted (100,000×g for 30 min at 4° C.). The pellets and supernatants were boiled in LDS sample buffer and analyzed by Western blotting with either 1:2000 goat anti-gp120 polyclonal antibody (ThermoFisher) and HRP-conjugated rabbit anti-goat IgG antibody, or with 1:5000 rabbit anti-Gag p55/p24/p17 antibody (Abcam) and HRP-conjugated goat anti-rabbit IgG antibody (Abcam).

HIV-1 with BG505 Env = assay: microbe, parasite or virus in culture; type: cell-based; settings: Human immunodeficiency virus 1; Cf2Th-CD4/CCR5 target cells, 48 hours, luciferase; means and standard errors of four experiments; read-out: 50% inhibitory concentration (IC50), BG505
[2] = system: cell-surface HIV-1AD8 Env; assay: Recognition of cell-surface Env by C34-Ig and CD4-Ig; type: cell-based
Protocol: (§1) Immunoprecipitation of cell-surface Env: Doxycycline-induced A549-Env cells were washed twice with washing buffer (1×PBS+5% FBS), with or without 10 μM BMS-806 or compounds described herein. The cells were then incubated with 5 μg/ml antibody for one hour at 4° C. in the continued presence or absence of the compounds described herein. After washing four times in washing buffer, the cells were lysed in NP-40 lysis buffer (0.5% NP-40, 0.5 M NaCl, 10 mM Tris, pH 7.5) for five minutes at 4° C. with gentle agitation. Unless specifically indicated otherwise, compounds described herein were not added to the NP-40 lysis buffer. The lysates were cleared by centrifugation at 13,200×g for 20 minutes at 4° C., and the clarified supernatants were incubated with Protein A-Sepharose beads (50 μl of 25 mg/ml in PBS per sample) for one hour at room temperature. The beads were pelleted (1000 rpm×1 min) and washed three times with final wash buffer (200 mM Tris-HCl, pH 8.0, 100 mM (NH4)2SO4, 1 M NaCl and 0.1% NP-40). The beads were suspended in LDS sample buffer, boiled and analyzed by Western blotting using 1:2000 goat anti-gp120 polyclonal antibody (ThermoFisher) and 1:2000 HRP-conjugated rabbit anti-goat IgG (ThermoFisher). The transmembrane Env was analyzed by Western blot with the 4E10 anti-gp41 antibody and HRP-conjugated goat anti-human IgG (Santa Cruz).
The effect of BMS-806 on the recognition of the cell-surface HIV-1AD8 Env by CD4-Ig and C34-Ig was evaluated. CD4-Ig is a soluble CD4-immunoglobulin fusion protein, and C34-Ig contains the gp41 HR2 region fused to an immunoglobulin Fc. C34-Ig efficiently recognized the cell-surface Env only after incubation with soluble CD4 (sCD4) (FIG. 1C, left panel). BMS-806 blocked C34-Ig recognition of Env in the presence of sCD4.

[3] = system: cell-surface HIV-1AD8 Env (A549-Env cells); assay: Immunoprecipitation of cell-surface Env by antibody panel; type: cell-based; settings: 10 μM
Protocol: as §1

[4] = system: HIV-1JR-FL Env on virions; assay: Single-molecule FRET of virion Env; settings: saturating concentration (100 μM)
Protocol: Single-molecule fluorescence resonance energy transfer (smFRET): Viruses with HIV-1JR-FL Env that is double-tagged at V1-Q3 and V4-A1 were prepared for smFRET imaging, as described in Munro, Science 346, 759-763 (2014). The high (40:1) ratio of wild-type Env to tagged Env ensures that, on average, only one tagged protomer is available for imaging on a single virus particle. The Q3 and A1 double-tagged viruses allowed the incorporation of Cy3B and Cy5 fluorescent labels, respectively. Thus, the relative movements of the V1 and V4 regions in one gp120 subunit of an individual Env trimer could be monitored in real time. The smFRET images were acquired on an in-house-built total internal reflection fluorescent microscope, as described in Munro. HIV-1JR-FL viruses incubated with saturating concentrations (100 μM) of AEG-II-168 or control HIV-1JR-FL viruses without compound were used for smFRET imaging. Data were analyzed with the customized MATLAB (Mathworks) program SPARTAN as described in Juette, Nat Methods 13, 341-344 (2016). FRET trajectories meeting the criteria of quality (sufficient signal:noise ratio, single dye photobleaching, anti-correlated features between donor and acceptor intensity and fluorescence lifetime) were compiled into FRET histograms. Hidden Markov modeling was used to fit the FRET histograms with the sum of three Gaussian distributions. […]

[5] = HIV-1AD8 Env variant in HOS cell lysates

| SMILES | sCD4-induced shedding of gp120 from Env complexes (HIV-1 Env complexes; 10 μM added to cell lysates) | BMS-806-induced gp120-Env association, I559F mutant (HIV-1 Env complexes; [5]) | BMS-806-induced gp120-Env association, L193A mutant (HIV-1 Env complexes; [5]) | pIC50 [1] | Spontaneous shedding of gp120 into the VLP supernatant (HIV-1AD8 Env on VLPs) | pIC50 (HIV-1 with BG505 Env) | CD4-Ig binding to the gp120 and gp160 Envs ([2]; 500 nM) | C34-Ig binding to Env ([2]; 500 nM, with sCD4) | CD4-Ig recognition of Env ([2]; 10 μM) | Recognition of cell-surface Env by poorly neutralizing antibodies ([3]; 17b, 19b, 902090, F105) | Binding of bNAbs to mature cell-surface gp120 ([3]; PG9, PG16, PGT145, PGT151, 35022) | Virion Env conformational state by smFRET [4] |
| --- | --- | --- | --- | --- | --- | --- | --- | --- | --- | --- | --- | --- |
| COc1ccnc2[nH]cc(C(=O)C(=O)N3CCN(C(=O)c4ccccc4)C[C@H]3C)c12 [BMS-806, reference compound] | could be blocked | abrogated responsiveness to BMS-806 | poor responsiveness | < 7.00 | decreased the shedding of gp120 | 9.10 | still detected | inhibited almost completely | inhibited CD4-Ig recognition of the gp120 glycoprotein on the mature Env, but not the uncleaved gp160 Env | decreased the recognition of the uncleaved Env | increased the binding of some bNAbs |  |
| COc1ccc(-c2ccc(CNC(=O)c3c(F)c(F)c(N=[N+]=[N-])c(F)c3F)o2)c2[nH]cc(C(=O)C(=O)N3CCN(C(=O)c4ccccc4)CC3)c12 [AEG-II-168] |  |  |  | < 7.00 | decreased the shedding of gp120 | 9.66 |  |  |  |  |  | maintained a State-1-dominant conformation |
